Data published in patent publication US20210183469A9, “COMPUTATIONAL PLATFORM FOR IN SILICO COMBINATORIAL SEQUENCE SPACE EXPLORATION AND ARTIFICIAL EVOLUTION OF PEPTIDES” (priority 2018, published 2021).
No end group written: not given here.

Key:
human erythrocytes = test: Hemolytic assay; conditions: 1 h at 37° C., 100% of hemolysis was not observed
Procedure: (§2) Fresh human venous blood was collected from volunteers in Vacutainer collection tubes containing sodium heparin as an anticoagulant (BD Biosciences, Franklin Lakes, N.J.). The blood was centrifuged at 1500 rpm and the serum was removed and the blood cells were replaced and washed 3 times with the same volume of sterile NaCl 0.85% solution. Concentrated red blood cells were diluted tenfold in NaCl 0.85% solution and then exposed at two-fold dilutions of peptides for 1 h at 37° C., at identical concentrations used for antimicrobial assays, in the ratio of 1:1 (v/v), achieving a final volume of 100 uL. The assay was carried out in 96-well polypropylene microtiter plates. The positive control wells contained 1% of Triton X-100, representing 100% cell lysis, and negative control wells contained sterile saline. Hemoglobin release was monitored chromogenically at 546 nm using a microplate reader.

E. coli ATCC 25922 = test: SYTOX Green uptake assay (cytoplasmic membrane permeabilization); type: cell-based, Escherichia coli; conditions: 5 μM, positive control
Procedure: The guavanin 2-induced permeabilization of the bacterial cytoplasmic plasma membrane of E. coli ATCC 25922 was determined by fluorometric measurement of SYTOX green (SG) influx (Thevissen et al., Appl. Environ. Microbiol. 1999 December; 65(12): 5451-8). SG is a high-affinity nucleic acid dye that is impermeant to live cells. When the cell membrane is damaged, this dye penetrates into the cell and binds to intracellular DNA, leading to an increase in fluorescence. For SG uptake assay, exponentially growing bacteria (6×10^5 CFU·mL^−1) were re-suspended in PBS after centrifugation (1000×g, 10 min, 4° C.) and washing steps. 792 μL of the bacterial suspension was pre-incubated with 8 μL of 100 μM SG during 30 min at 37° C. in the dark. […] Three independent experiments were performed and results correspond to a representative experiment with negative (PBS) and positive (melittin) controls.

E. coli (ATCC 25922) = test: Membrane polarization assay with DiSC3(5); type: cell-based, Escherichia coli; conditions: melittin positive control
Procedure: When the cytoplasmic membrane is intact, the fluorescent probe DiSC3(5) accumulates into the cytoplasmic membrane and then aggregates, causing self-quenching of the fluorescence. In the presence of a membrane-depolarizing agent, DiSC3(5) is released into the medium, leading to an increase in fluorescence that can be monitored over time. The experiment was performed as previously described (André et al., ACS Chem. Biol. 2015 Jul. 30; 10(10): 2257-66). Briefly, exponentially growing bacteria were centrifuged (1000×g, 10 min, 4° C.), washed with PBS and re-suspended in the same buffer to an A630 of 0.1; then 700 µL of bacteria were pre-incubated with 1 μM DiSC3(5) in the dark during 10 min at 37° C., and then 100 μL of 1 mM KCl were added in order to equilibrate the cytoplasmic and external K+ concentrations. […] Three independent experiments were performed and results correspond to a representative experiment with negative (PBS) and positive (melittin) controls.

[1] = test system: bioluminescent engineered P. aeruginosa strain H1001; test: Antimicrobial activity by bioluminescence assay (SPOT-synthesized peptides); type: cell-based, Pseudomonas aeruginosa; conditions: SPOT-synthesized unpurified crude peptide (~70% purity)
Procedure: A peptide array composed of 20 peptides (15 guavanins, 4 Pg-AMP1 fragments and magainin 2) was designed and synthesized by Kinexus Bioinformatics Corporation (Vancouver, BC). Peptides were produced in a standard mass of 80 μg by using cellulose support in SPOT technology, as previously described by Winkler et al. Methods Mol. Biol. 2009; 570: 157-74. The crude synthetic peptides were obtained from cellulose membrane discs that had already been treated with ammonia gas to release the peptides from the membrane. Peptides were then dissolved overnight in distilled water and subsequently evaluated for their biological activities, as described below.
The antimicrobial activity of the synthesized peptides was evaluated against an engineered luminescent Pseudomonas aeruginosa H1001 strain in 96-well microplates, as described previously with a few modifications (Hilpert & Hancock, Nat. Protoc. 2007; 2(7): 1652-60). […] Luminescence was measured on a Tecan […]luor Plus Microplate Reader (Tecan US, Morrisville, N.C.). The antimicrobial activity was evaluated by the ability of the peptides to reduce the luminescence of P. aeruginosa-lux strain compared to untreated cells. […]

[2] = test system: Escherichia coli ATCC 25922; test: MIC, two-fold serial dilution in microtitre plates; type: cell-based; conditions: average of three independent experiments
Procedure: (§1) After 18 h incubation at 37° C.

[3] = test system: Acinetobacter baumannii ATCC 19606; test: MIC, two-fold serial dilution in microtitre plates; type: cell-based
Procedure: as §1

HEK-293 cells = test: Cytotoxicity, MTT-based microassay; type: cell-based, human; conditions: 72 h, read-out: Active Concentration (inhibitory concentration 50, IC50)
Procedure: HEK-293 cells were cultured in DMEM medium, and incubated at 37° C. in a humidified atmosphere of 5% CO2. Cell viability was quantified after peptide incubation using a methylthiazolyldiphenyl-tetrazolium bromide (MTT)-based microassay (Riss et al., (eds. Sittampalam, G. et al.) (Bethesda (Md.), 2004)). […] Then, 10 μl of MTT (5 mg·mL^−1 in PBS) was added to each well and the cells were further incubated for 4 h in the dark. The formazan crystals formed by mitochondrial reductases in intact cells are insoluble in aqueous solutions and precipitate. Formazan crystals were dissolved using a solubilization solution (40% dimethylformamide in 2% glacial acetic acid, 16% sodium dodecyl sulfate, pH 4.7) followed by 1 h incubation at 37° C. under shaking (150 rpm). Finally, the absorbance of the resuspended formazan was measured at 570 nm. Data were analyzed with GraphPad Prism® 5.0 software to determine the inhibitory concentration 50 (IC50), which corresponds to the peptide concentration producing 50% cell death. Results were expressed as the mean of three independent experiments performed in triplicate.

in vitro = conditions: human
Procedure: as §2

[4] = test system: Listeria ivanovii Li4pVS2
Procedure: Staphylococcus aureus ATCC 25923, Enterococcus faecalis ATCC 29212, Escherichia coli ATCC 25922, Pseudomonas aeruginosa ATCC 27853, Acinetobacter baumannii ATCC 19606 and Klebsiella pneumoniae ATCC 13883 were cultured in Lysogeny Broth (LB). The bacteria Streptococcus pyogenes ATCC 19615 and Listeria ivanovii Li 4pVS2 were cultured in Brain Heart Infusion (BHI) broth, whereas Candida species (C. albicans ATCC 90028 and C. parapsilosis ATCC 22019) were cultured in Yeast Peptone Dextrose (YPD) medium. Logarithmic phase culture of bacteria and yeasts were centrifuged and suspended in MH (Mueller Hinton) broth to an A630 of 0.01 (˜10^6 CFU·mL^−1), except for S. pyogenes, L. ivanovii and E. faecalis that were suspended in their respective growth medium. […] After 18 h incubation at 37° C. (30° C. for yeasts), the antimicrobial susceptibility was monitored by measuring the change in A630 using a microplate reader (UVM 340, Asys Hitech). […] Each experiment was performed in triplicate with positive (0.7% formaldehyde) and negative (without peptide) inhibition controls.

| Compound | Hemolysis (human erythrocytes) [µg/mL] | other results |
| --- | --- | --- |
| N=C(N)NCCC[C@H](NC(=O)CNC(=O)[C@H](CO)NC(=O)CNC(=O)[C@H](Cc1ccc(O)cc1)NC(=O)CNC(=O)CNC(=O)CNC(=O)[C@H](Cc1ccc(O)cc1)NC(=O)[C@H](CCCNC(=N)N)NC(=O)CNC(=O)CNC(=O)CNC(=O)[C@H](Cc1ccc(O)cc1)NC(=O)CNC(=O)CNC(=O)[C@H](Cc1ccc(O)cc1)NC(=O)CNC(=O)[C@@H](N)Cc1ccc(O)cc1)C(=O)NCC(N)=O [Fragment 3] | >200 |  |
| CC[C@H](C)[C@H](NC(=O)CN)C(=O)NCC(=O)N[C@@H](C)C(=O)N[C@H](C(=O)N[C@@H](CC(C)C)C(=O)N[C@@H](CCCCN)C(=O)N[C@H](C(=O)N[C@@H](CC(C)C)C(=O)N[C@H](C(=O)N[C@H](C(=O)NCC(=O)N[C@@H](CC(C)C)C(=O)N1CCC[C@H]1C(=O)N[C@@H](C)C(=O)N[C@@H](CC(C)C)C(=O)N[C@H](C(=O)N[C@@H](CO)C(=O)N[C@@H](Cc1c[nH]c2ccccc12)C(=O)N[C@H](C(=O)N[C@@H](CCCCN)C(=O)N[C@@H](CCCNC(=N)N)C(=O)N[C@@H](CCCCN)C(=O)N[C@@H](CCCNC(=N)N)C(=O)N[C@@H](CCC(N)=O)C(=O)N[C@@H](CCC(N)=O)C(N)=O)[C@@H](C)CC)[C@@H](C)CC)[C@@H](C)O)[C@@H](C)O)C(C)C)C(C)C [melittin] |  | SYTOX Green (SG) fluorescence signal (E. coli ATCC 25922): rapid and maximal SG fluorescence signal; DiSC3(5) fluorescence (membrane potential) (E. coli (ATCC 25922)): rapid increase in the fluorescence signal |
| GQPVGQGVERSHDDNRNQPR-NH2 [Fragment 4] | >200 |  |
| H-GIGKFLHSAKKFGKAFVGEIMNS-OH [Magainin 2, reference compound] | >200 | MIC [1]: 100 µg/mL |
| RAYMEALRQAERLGNRTARR-NH2 [Guavanin 9] | >200 |  |
| RKLMELYEQAIRYGKRSYRR-NH2 [Guavanin 12] | >200 |  |
| RKLMEMYEEAFRYFNRISRR-NH2 [Guavanin 5] | >200 |  |
| RKLVECYERAERDANRSGRR-NH2 [Guavanin 15] | >200 |  |
| RKYMRQYEEAIRDGNRSIRR-NH2 [Guavanin 3] | >200 |  |
| RQIYESIEQALRRGYRSYRR-NH2 [Guavanin 7] | >200 |  |
| RQLMELIEQAERYGNRFYRR-NH2 [Guavanin 11] | >200 |  |
| RQYMRQIEQALRYGYRISRR-NH2 [Guavanin 2] | >200 | Active Concentration (MIC) [2]: 6.25 µM; Active Concentration (MIC) [3]: 6.25 µM; IC50 (HEK-293 cells): > 200 µM; CC50 at 1 h (in vitro): > 200 µM; Active Concentration (MIC) [4]: 50 µM |
| RQYMRYLEQAERYVNRNLRR-NH2 [Guavanin 4] | >200 |  |
| RRGMKQYERISRDANRSYRR-NH2 [Guavanin 1] | >200 |  |
| RRYMECYEQAERYFRRFGRR-NH2 [Guavanin 13] | >200 |  |
| RSFMKCYEQASRYGNRILRR-NH2 [Guavanin 14] | >200 |  |
| RSIMELYKQASRSFNRGIRR-NH2 [Guavanin 6] | >200 |  |
| RSYYEAYERALRKGQRGIRR-NH2 [Guavanin 8] | >200 |  |
| RYGYGGYGGGRYGGGYGSGR-NH2 [Fragment 2] | 100 | Hemolysis (human erythrocytes; listed as 2nd fragment): hemolytic |
| RYLMEYAEQAKRDAKRAYRR-NH2 [Guavanin 10] | >200 |  |
| SSRMECYEQAERYGYGGYGG-NH2 [Fragment 1] | >200 |  |
